Results published in publication PMC12354831 (Cell Death Discovery, 2025).

Experiments:
[1] = test system: U87-MG cells; test: CCK-8 IC50 determination in U87-MG cells with or without GLUT3 KD; format: cell-based, human; settings: GLUT3 KD vs control, CCK-8, 24 h drug treatment
Procedure: (§1) The GBM cell line was seeded into a 96-well plate at a density of 5 × 10^3 cells per well and incubated at 37 °C in a humidified atmosphere containing 5% CO2 overnight. […] Following 24 h of drug treatment, 10 µL of CCK-8 reagent was added to each well, and the cells were incubated for an additional 1 h at 37 °C. The absorbance was then measured at 450 nm using a microplate reader.
(§2) In this study, the experimental groups were designated as Group A (cells treated with temozolomide (TMZ) or capecitabine (CAPE)), the control group as Group B (cells treated with DMSO), and the blank control group as Group C ([…]). The cell viability rate was calculated using the formula: (A-C)/(B-C) × 100%, where A, B, and C represent the absorbance values of Group A, Group B, and Group C, respectively.

[2] = test system: U251-MG cells; test: CCK-8 IC50 determination in U251-MG cells with or without GLUT3 OE; format: cell-based, human; settings: GLUT3 OE vs control, CCK-8, 24 h drug treatment
Procedure: as §1, §2

| fold increase of IC50 on GLUT3 knockdown [1] | reduction of IC50 in GLUT3 overexpressing cells compared to control cells [2] | SMILES |
| --- | --- | --- |
| 4.3 fold |  | Nc1ccn([C@@H]2O[C@H](CO)[C@@H](O)[C@@H]2O)c(=O)n1 [cytarabine] |
| ~ 1.6 fold | ~ 81.7% | Nc1ccn([C@@H]2O[C@H](CO)[C@@H](O)C2(F)F)c(=O)n1 [GEM, gemcitabine] |
